Data from US6630125B2, “18F-labeled choline analogs” (priority 2000, dated 2003).
Where two headings read alike, the source gives them in different places.

Columns and labels:
[1] = tested on: PC-3 human prostate cancer cells; experiment: Accumulation of radiotracers by cultured PC-3 cells; assay type: cell-based; conditions: for Uptake by PC-3 cancer cells, HC-3: 5 mM hemicholinium-3; for accumulation by cultured PC-3 cells compared with other tracers: control conditions; for Uptake by PC-3 cancer cells, Control: 2 hr incubation
Experimental: The incubation media utilized for the experiments differed according to the cancer cell type (Table 1). On the day of the study, the medium was refreshed using a volume of 1 ml in each well. Cells were incubated in control conditions or with the addition of metabolic and growth factor receptor inhibitors to test the sensitivity of uptake of the radiotracers to specific inhibitions. […] Following a 30-min incubation period, the radiotracers (e.g., FDG or FCH) were added (˜2 µCi/well) and the cells were incubated for 2 hr. The cells were washed three times with phosphate buffered saline solution, released from the plates by briefly incubating with 0.05% trypsin in DMEM, transferred to test tubes, and counted for F-18 radioactivity in a gamma counter. The amount of radioactivity in the cells was normalized by the dose administered to each well.
The present work studies the structure-activity relationships for purposes of optimization of the molecule for imaging prostate cancer. […] A number of structural analogs of choline were labeled as N-[^18F]fluoromethyl derivatives via the intermediate [^18F]fluorobromomethane (see Table 3). Uptake of the radiotracers was assessed in cultured PC-3 human prostate cancer cells and in a murine PC-3 xenograft model.

[2] = tested on: mice with PC-3 xenografts; conditions: for tumor uptake: PC-3 xenograft
Experimental: Body weight and tumor volume were measured weekly and tumor volume (mm3) was calculated using the formula S2×L/2, where S and L represent the small and large diameters of the tumor, respectively.
A prescribed duration of time was allowed before procurement of heart, liver, lung, blood, kidney, bone (femur), brain (whole), prostate gland, tumor, bladder, and skeletal muscle. The tissues were weighed, and counted for ^18F in a gamma counter, then dissolved in Solvable (Dupont, Boston Mass.) and counted for ^14C in a liquid scintillation counter. For the bladder, the percentage of the injected dose in the urine was determined. For all other tissues, radiotracer uptake was calculated as: […]

[3] = tested on: patients with prostate cancer; experiment: PET imaging in patients with prostate cancer; conditions: Example 11 patient, metastatic prostate cancer
Experimental: The distribution of FCH in PET imaging studies was evaluated in 14 patients with prostate cancer, 14 patients with breast cancer, and 5 patients with brain tumors. Imaging was performed using the Advance PET scanner (GE Medical Systems, Milwaukee, Wis.). […] In prostate cancer patients, a transmission scan of the pelvic region was obtained before administration of radiotracer. FCH (2.5-5 mCi) was administered intravenously, and dynamic imaging of the pelvis region was commenced for 20-30 min. During image reconstruction, the emission data in the pelvic region were corrected for photon attenuation using the transmission scan. Immediately following the dynamic scan, a whole-body emission scan was performed without transmission scanning for attenuation correction. The images were reconstructed using an Ordered Subset Expectation Maximum (OS-EM) algorithm. Regions-of-interest were drawn manually on the attenuation corrected images for evaluation of FCH kinetics in tissues. Standardized uptake values of FCH uptake in tissues were calculated using the attenuation-corrected images according to the equation: [formula]
Patient 2: Transmission and FCH emission scans of a person with hormone naive clinical stage T2 prostate cancer were commenced over the lower pelvis.
The same patient was scanned with FDG within the same week (FIG. 8).
Patient 4: A person with a history of clinical stage T3b prostate cancer treated by radical retropubic prostatectomy was diagnosed with metastatic disease by bone scan. FCH-PET imaging was performed before and after initiating androgen deprivation therapy. In the first study, whole-body emission scanning was started 5 min after injection, beginning at the pelvic region in order to image the pelvis and prostatic bed before arrival of urinary radioactivity. […] The patient was rescanned 2 weeks after initiating androgen deprivation therapy.
Patient 5: A person was initially diagnosed five years prior with locally advanced clinical stage T3NOMO prostate cancer and underwent radical prostatectomy followed by external beam radiation to the prostate bed. […] The patient was then treated with Zolex and Casodex.

yeast choline kinase = target: T1, yeast choline kinase (Saccharomyces cerevisiae, UniProt P20485); experiment: In vitro phosphorylation by yeast choline kinase; assay type: biochemical; conditions: 1 μM choline; for In vitro phosphorylation: 25 mU/ml yeast choline kinase, 23° C., 10 min, n = 5
T1 sequence (P20485 1-582): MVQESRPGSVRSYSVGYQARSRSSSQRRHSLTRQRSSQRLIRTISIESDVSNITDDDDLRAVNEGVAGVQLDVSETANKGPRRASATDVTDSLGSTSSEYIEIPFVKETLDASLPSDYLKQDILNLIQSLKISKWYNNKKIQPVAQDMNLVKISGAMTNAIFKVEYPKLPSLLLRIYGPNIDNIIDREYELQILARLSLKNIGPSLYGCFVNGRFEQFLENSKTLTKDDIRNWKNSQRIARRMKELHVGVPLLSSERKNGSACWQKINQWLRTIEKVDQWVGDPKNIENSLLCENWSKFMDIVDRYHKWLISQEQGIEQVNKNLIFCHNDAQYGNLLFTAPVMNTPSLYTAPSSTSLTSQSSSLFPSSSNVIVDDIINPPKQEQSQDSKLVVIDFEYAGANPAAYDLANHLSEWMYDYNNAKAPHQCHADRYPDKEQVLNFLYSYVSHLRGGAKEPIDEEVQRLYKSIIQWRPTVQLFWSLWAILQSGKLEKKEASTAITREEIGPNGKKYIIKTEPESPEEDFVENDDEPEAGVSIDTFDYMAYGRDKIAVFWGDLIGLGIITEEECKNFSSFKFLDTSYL
Experimental: The test tube was gently agitated throughout the incubation period. The reaction was stopped by placing the tube in a boiling water bath for 2 min. To serve as controls, some samples were placed directly in the boiling water bath after addition of all substrates. […] The percentage of radioactivity converted to the phosphorylated form was calculated.

[4] = inhibitor HC-3 (hemicholinium-3, 5 mM)

`C[N+]1(C[18F])CCCC(O)C1` (stereo not shown) [cyclic N—OH] was tested, and the “Uptake by PC-3 cells” value ([1]; inhibitor none) was 0.077 ± 0.011 % dose/2 hr/10^5 cells plated.
With `[2H]C([2H])(O)C[N+](C)(C)C[18F]` [FDC] the “Uptake by PC-3 cells” value ([1]; inhibitor none) was 2.410 ± 0.144 % dose/2 hr/10^5 cells plated, the “Tumor:muscle ratio” value ([2]; 60 min after injection) was “highest” and the “tumor:blood ratio” value ([2]; 60 min after injection) was “highest”. The “SUV of osseous lesion (pubic ramus)” value [3] was 11.7.
For `CCCCC[N+](C)(C[18F])CCO` (stereo not shown) [Pentyl], the “Uptake by PC-3 cells” value ([1]; inhibitor none) was 0.073 ± 0.007 % dose/2 hr/10^5 cells plated.
With `CC(C)C[N+](C)(C[18F])CCO` (stereo not shown) [Isobutyl] the “Uptake by PC-3 cells” value ([1]; inhibitor none) was 2.74 ± 0.09 % dose/2 hr/10^5 cells plated.
With `OCC[N+]1(C[18F])CCOCC1` [cyclic 6NO] the “Uptake by PC-3 cells” value ([1]; inhibitor none) was 0.399 ± 0.014 % dose/2 hr/10^5 cells plated.
`OCC[N+]1(C[18F])CCCCC1` [cyclic 6N] was tested, and the “Uptake by PC-3 cells” value ([1]; inhibitor none) was 0.144 ± 0.014 % dose/2 hr/10^5 cells plated.
In the case of `C[N+](C)(CCO)CCC[18F]` [FPC, [^18F]fluoropropylcholine], the “phosphorylation rate, less than for FCH” value (yeast choline kinase) is reported as roughly 60%, the In vitro phosphorylation (yeast choline kinase) is reported as 22.1 ± 3.1 % and the “Uptake by PC-3 cancer cells, HC-3” value [1] is reported as 0.76 ± 0.20 % dose/2 hr/105 cells plated. The “decrease in uptake by PC-3 cells with hemicholinium-3 (HC-3)” value ([1]; HC-3 versus control) was 41%, the “accumulation by cultured PC-3 cells compared with other tracers” value [1] was “not significantly different from that of FCH” and the “Uptake by PC-3 cancer cells, Control” value [1] was 1.29 ± 0.28 % dose/2 hr/105 cells plated.
For `[2H]C([2H])(O)C[N+](C)(CC)C[18F]` (stereo not shown) [FEDC], the “Uptake by PC-3 cells” value ([1]; inhibitor none) was 0.720 ± 0.065 % dose/2 hr/10^5 cells plated.
In the case of `C[N+](C)(C[18F])CCCCO` [Butanol], the “Uptake by PC-3 cells” value [1] is reported as 0.140 ± 0.042 % dose/2 hr/10^5 cells plated.
For `CC(O)C[N+](C)(C)C[18F]` (stereo not shown) [Tracer 1-methyl], the “Uptake by PC-3 cells” value ([1]; inhibitor none) was 0.202 ± 0.021 % dose/2 hr/10^5 cells plated.
With `OCC[N+](C[18F])(CCO)CCO` [triethanol] the “Uptake by PC-3 cells” value ([1]; inhibitor none) was 0.170 ± 0.045 % dose/2 hr/10^5 cells plated.
For `CCC[N+](C)(C[18F])CCCO` (stereo not shown) [Propyl-prop.], the “Uptake by PC-3 cells” value ([1]; inhibitor none) was 0.234 ± 0.050 % dose/2 hr/10^5 cells plated.
`C[N+](C)(C[18F])CCCO` [FHC, [^18F]fluorohomocholine] was tested, and the “uptake in cultured PC-3 cells” value [1] was ~2 %/hr/100,000 cells plated, the “Uptake by PC-3 cells” value ([1]; inhibitor none) was 1.635 ± 0.306 % dose/2 hr/10^5 cells plated and the tumor uptake [2] was roughly 0.07 % dose kg/g.
In the case of `C#CC[N+](C)(C[18F])CCO` (stereo not shown) [FPP], the “Uptake by PC-3 cells” value ([1]; inhibitor none) is reported as 7.90 ± 0.53 % dose/2 hr/10^5 cells plated.
With `CC[N+](C)(C[18F])CCO` (stereo not shown) [FEtC, [^18F]fluoromethylethylcholine] the “phosphorylation rate compared with CH” value (yeast choline kinase) was “equivalent to CH”, the In vitro phosphorylation (yeast choline kinase) was 55.2 ± 6.6% and the “uptake in cultured PC-3 cells” value [1] was ~2 %/hr/100,000 cells plated. For the same compound, the “Uptake by PC-3 cancer cells, HC-3” value [1] was 0.12 ± 0.02 % dose/2 hr/105 cells plated, the “accumulation by cultured PC-3 cells compared with other tracers” value [1] was “higher than HARA-1 (p<0.05), but lower than FCH” and the “Uptake by PC-3 cancer cells, Control” value [1] was 0.74 ± 0.04 % dose/2 hr/105 cells plated. The “Uptake by PC-3 cells” value [1, 4] was 0.122 ± 0.016 % dose/2 hr/10^5 cells plated, the “Uptake by PC-3 cells” value ([1]; inhibitor none) was 0.741 ± 0.041 % dose/2 hr/10^5 cells plated and the tumor uptake [2] was roughly 0.07 % dose kg/g.
With `[2H]C([2H])(O)CC[N+](C)(C)C[18F]` [propanol - D] the “Uptake by PC-3 cells” value [1] was 0.763 ± 0.065 % dose/2 hr/10^5 cells plated.
With `CCCC[N+](C)(C[18F])CCO` (stereo not shown) [Butyl] the “Uptake by PC-3 cells” value ([1]; inhibitor none) was 0.153 ± 0.021 % dose/2 hr/10^5 cells plated.
`C[N+](C[18F])(CCO)CCO` [Diethanol] was tested, and the “Uptake by PC-3 cells” value ([1]; inhibitor none) was 0.462 ± 0.083 % dose/2 hr/10^5 cells plated.
With `C=CC[N+](C)(C[18F])CCO` (stereo not shown) [Allyl] the “Uptake by PC-3 cells” value [1, 4] was 0.11 ± 0.01 % dose/2 hr/10^5 cells plated and the “Uptake by PC-3 cells” value ([1]; inhibitor none) was 4.45 ± 0.46 % dose/2 hr/10^5 cells plated.
With `CC[N+](C)(C[18F])CCCO` (stereo not shown) [Ethyl-Prop.] the “Uptake by PC-3 cells” value ([1]; inhibitor none) was 0.285 ± 0.023 % dose/2 hr/10^5 cells plated.
With `CCC[N+](C)(C[18F])CCO` (stereo not shown) [FPrC] the “uptake in cultured PC-3 cells” value [1] was ~2 %/hr/100,000 cells plated, the “Uptake by PC-3 cells” value [1, 4] was 0.062 ± 0.001 % dose/2 hr/10^5 cells plated and the “Uptake by PC-3 cells” value ([1]; inhibitor none) was 1.877 ± 0.115 % dose/2 hr/10^5 cells plated. The tumor uptake [2] was roughly 0.07 % dose kg/g.
With `CC(CO)[N+](C)(C)C[18F]` (stereo not shown) [Tracer 2-methyl] the “Uptake by PC-3 cells” value ([1]; inhibitor none) was 0.182 ± 0.016 % dose/2 hr/10^5 cells plated.
For `CC[N+](CC)(C[18F])CCO` [Diethyl], the “Uptake by PC-3 cells” value ([1]; inhibitor none) was 0.503 ± 0.091 % dose/2 hr/10^5 cells plated.
In the case of `OCC[N+]1(C[18F])CCCC1` [cyclic 5N], the “Uptake by PC-3 cells” value ([1]; inhibitor none) is reported as 0.355 ± 0.028 % dose/2 hr/10^5 cells plated.
`[2H]C([2H])(O)C[N+](C)(C[18F])CCC` (stereo not shown) [propyl - D] was tested, and the “Uptake by PC-3 cells” value ([1]; inhibitor none) was 1.864 ± 0.307 % dose/2 hr/10^5 cells plated.
With `CCC(C)[N+](C)(C[18F])CCO` (stereo not shown) [Sec-butyl] the “Uptake by PC-3 cells” value ([1]; inhibitor none) was 0.28 ± 0.01 % dose/2 hr/10^5 cells plated.
With `C[N+](C[18F])(CCO)Cc1ccccc1` (stereo not shown) [benzyl] the “Uptake by PC-3 cells” value ([1]; inhibitor none) was 0.202 ± 0.009 % dose/2 hr/10^5 cells plated.
